Laboratory results taken from patent publication US7820642B2, “Nandrolone 17β-carbonates” (The United States of America as represented by the …, priority 2005, dated 2010).
Entries after “also recorded” stand apart in the source; their conditions may differ.

Experiments:
Format in all cases: in vivo, rat
[1] = system: castrate Sprague-Dawley male rats; assay: Androgenic activity, Hershberger test (ventral prostate weight); conditions: for Biological activity Potency Ratio: oral in 10% ethanol/sesame oil, methyltestosterone standard = 1.00, FIG. 11
Protocol: The androgenic activity was tested as follows (see, Hershberger et al., Proc. Soc. Exptl. Biol. Med., 83: 175-180 (1953)). Immature (approximately 21 day old) male rats of the Sprague-Dawley strain were orchidectomized under METOFANE® anesthesia and randomly assigned to groups of ten animals for each dose level of test material and vehicle controls. Animals were maintained under standard conditions of housing and had free access to food and water. Illumination was controlled for 14-hour periods of light and 10 hours of darkness. Test compounds were dissolved in 10% ethanol/sesame oil and administered by gavage (oral) or subcutaneous injection daily for seven consecutive days starting on the day of surgery. Animals were sacrificed 24 hours after the last dose and the ventral prostate and seminal vesicles excised, cleaned of fat and connective tissue, blotted on moist filter paper and weighed to the nearest 0.1 mg. Ventral prostate weight was used as the endpoint because ventral prostate is the more sensitive organ to androgenic stimulation.
Statistical analysis was performed by conventional methods using a PROPHET data management system operating on SUN Microsystems OS 4.1.1 (see e.g., Bliss, Cl (1952) The Statistics of Bioassay, New York, Academic Press; Hollister, C (1988), Nucleic Acids Research, 16:1873-1875.
Each data point represents the mean (n=10) and standard error of the mean (SEM) prostate weight for each dose level. The potency ratio and 95% confidence index are set forth below.

[2] = system: castrate Sprague-Dawley male rats; assay: Duration of androgenic activity after a single subcutaneous injection (ventral prostate weight, AUC); conditions: for AUC of ventral prostate weight (duration of androgenic activity), standards: historical data, 1.2 mg single subcutaneous injection, testosterone undecanoate in aqueous suspension, testosterone enanthate in sesame oil; for Duration of androgenic activity (in words): single subcutaneous injection in aqueous vehicle; for AUC of ventral prostate weight (duration of androgenic activity): 14 weeks
Protocol: Duration of androgenic activity was determined as follows. Immature (22 days of age) male rats of the Sprague-Dawley CD strain were orchidectomized under METOFANE anesthesia and randomly assigned to groups of forty or more animals. Animals were maintained under standard conditions of housing and had free access to food and water. Illumination was controlled for 14-hour periods of light and 10 hours of darkness. Animals received a single subcutaneous injection of 0.6 mg of test material in aqueous suspending vehicle (ASV) and/or an oily vehicle (10% ethanol/sesame oil, sesame oil containing 5 mg/ml chlorobutanol as a preservative or ethyl oleate) on the day of surgery. Controls received vehicle alone. Testosterone enanthate in sesame oil was used as a standard. In cases where the test material was not solid at room temperature, i.e., a wax or oil, 10% ethanol/sesame oil or ethyl oleate was used as a vehicle. Five rats from each group were sacrificed at weekly or biweekly intervals and seminal vesicle and ventral prostate glands were excised, cleaned of adherent fat and connective tissue and weighed to the nearest 0.1 mg. Ventral prostate weight was used as the endpoint because it is the more sensitive organ to androgenic stimulation. Area under the curve (AUC) was calculated by the trapezoidal rule.
Each data point represents the mean (n=5) and standard error of the mean (SEM) prostate weight for each time period. […] In FIG. 8, the data for 1.2 mg dose groups are shown together with historical data for testosterone undecanoate in aqueous suspension and testosterone enanthate in sesame oil as standards. Both testosterone undecanoate and testosterone enanthate are commercially available.

[3] = Serum levels of dimethandrolone (CDB-1321) and immunoreactive metabolites by radioimmunoassay; set-up: AUC of serum concentration of dimethandrolone and immunoreactive metabolites: unit not given here; conditions: for AUC of serum concentration of dimethandrolone and immunoreactive metabolites: n=5, FIG. 9
Protocol: Serum levels of testosterone and CDB-1321 were determined as follows. Rats from a duration of androgenic activity study were exsanguinated at autopsy, serum prepared by allowing blood to clot at room temperature and the sample frozen for subsequent radioimmunoassay. A radioimmunoassay for the free alcohol, 7a, 11β-dimethyl-19-nortestosterone, was developed using antisera generated in rabbits against the 3-carboxymethyloxime-BSA conjugate and employing the corresponding histamine conjugate for iodination as tracer.

[4] = system: luteinizing hormone (rLH); assay: Serum rLH in castrate male rats
Protocol: FIG. 14 depicts the serum levels of rLH as a function of time for groups 2 and 4 of the animals. Serum rLH were measured in the blood from castrate male rats following fourteen daily 12 mg/kg oral doses of CDB-4719A (dimethandrolone 17β-decylcarbonate, filled circles, group 2) or CDB-4521C (dimethandrolone 17β-undecanoate, open triangles, group 4) in 10% ethanol/sesame oil on days 0-13. Samples from weeks −1 to 6 or from weeks 7 to 9 and repeats were assayed as described in the protocols MEL-480AD using [^125I]-rLH or MEL-480AE, AG using [^125I]-rLH. The limit of detection shown as dotted line, or EC90, was the mean of 0.13, 0.14, or 0.16 in the first assay and 0.17, 0.22, or 0.21 ng/ml in the second series of assays based on 200 μl of serum per tube.
FIG. 15 depicts the serum levels of rLH as a function of time for groups 1 and 3 of the animals. Serum rLH were measured in the blood from castrate male rats following a single 12 mg/kg subcutaneous injection of CDB-4719A (dimethandrolone 17β-decylcarbonate, filled circles, group 1) or CDB-4521C (dimethandrolone 17β-undecanoate, open triangles, group 3) in an aqueous suspending vehicle on day 0. Samples from weeks −1 to 6 or from weeks 7 to 22 and repeats were assayed as described in the protocols MEL-480AD using [^125I]-rLH or MEL-480AE, AG, AH using [^125I]-rLH. The limit of detection shown as dotted line, or EC90, was the mean of 0.13, 0.14, or 0.16 in the first assay and 0.17, 0.22, or 0.21 ng/ml in the second series of assays based on 200 μl of serum per tube.
Carbonates of the invention, in embodiments, can be used to suppress luteinizing hormone in a mammal for extended periods of time. […] CDB-4719A (dimethandrolone 17β-decylcarbonate) was administered to castrate male rats, daily at 12 mg/kg oral doses, and CDB-4521C (dimethandrolone 17β-undecanoate) was administered in 10% ethanol/sesame oil, on days 0-13. […] This observation could have advantageous clinical implications, for example, in obtaining sustained suppression of the luteinizing hormone or hormone replacement therapy. In addition, this could have an advantage by providing a facile treatment using oral compositions such as tablets or capsules of the carbonates of the invention in suppressing hormone levels. Such treatment can be advantageous relative to a treatment involving parenteral (e.g., subcutaneous) administration of a drug such as the ester drug. Patient compliance is better with oral formulations than injections.
FIG. 15 provides a comparison between CDB-4719A (dimethandrolone 17β-decylcarbonate) and CDB-4521C (dimethandrolone 17β-undecanoate). A single dose (12 mg/kg) of the compound was administered to castrate male rats by subcutaneous injection in an aqueous suspending vehicle on day 0. The serum rLH concentration was monitored over a 22-week period and beyond.

[5] = fourteen daily 12 mg/kg oral doses in 10% ethanol/sesame oil, days 0-13, FIG. 14
[6] = single subcutaneous injection of 0.6 mg in aqueous suspending vehicle
[7] = single subcutaneous injection of 1.2 mg in aqueous suspending vehicle
[8] = oral, daily for 7 days in 10% ethanol/sesame oil, CDB 110 (methyltestosterone) = 1.000 assigned, FIG. 5, ranges did not pass all significance tests
[9] = subcutaneous injection, daily for 7 days, CBD-111 (testosterone) = 1.000 assigned, FIG. 6, footnote 2 values did not pass all significance tests

## C[C@]12CCC(=O)C=C1CC[C@@H]1[C@@H]2CC[C@@]2(C)[C@H]1CC[C@]2(C)O [CDB-110B, methyltestosterone, reference compound]
[1]
  Biological activity Potency Ratio: 1.00 (assigned)

## CCCCCCC(=O)O[C@H]1CC[C@H]2[C@@H]3CCC4=CC(=O)CC[C@]4(C)[C@H]3CC[C@]12C [CDB-112, testosterone enanthate, reference compound]
[2]
  AUC of ventral prostate weight (duration of androgenic activity), standards: 760 mg·week

## C[C@@H]1CC2=CC(=O)CC[C@@H]2[C@@H]2[C@@H]1[C@@H]1CC[C@H](O)[C@@]1(C)C[C@@H]2C [CDB-1321, 7a, 11β-dimethyl-19-nortestosterone, reference compound]
[3]; first 3 weeks, limit of detection 63 pg/ml
  Serum levels of the free alcohol after giving the free alcohol itself: barely above the limit of detection

## CCCCCCCCCCC(=O)O[C@H]1CC[C@H]2[C@@H]3CCC4=CC(=O)CC[C@]4(C)[C@H]3CC[C@]12C [CDB-3122E, testosterone undecanoate, reference compound]
[2]
  AUC of ventral prostate weight (duration of androgenic activity), standards: 494 mg·week

## CCCCCCCCCCC(=O)O[C@H]1CC[C@H]2[C@H]3[C@H]([C@@H](C)C[C@]12C)[C@H]1CCC(=O)C=C1C[C@H]3C [CDB-4521C, dimethandrolone 17β-undecanoate, reference compound]
[4]; [5]
  Serum rLH after administration was discontinued: bounced back and increased beyond the pretreatment level
  Serum rLH during administration: remained suppressed
[4]; single 12 mg/kg subcutaneous injection in aqueous suspending vehicle on day 0, FIG. 15
  Serum rLH up to 16 weeks post administration: remains suppressed
[4]; single 12 mg/kg subcutaneous injection in aqueous suspending vehicle on day 0, monitored over 22 weeks, FIG. 15
  Serum rLH after 16 weeks: rose after 16 weeks

## COC(=O)O[C@H]1CC[C@H]2[C@H]3[C@H]([C@@H](C)C[C@]12C)[C@H]1CCC(=O)C=C1C[C@H]3C [CDB-4718, 17β-Methoxycarbonyloxy-7α,11β-dimethylestr-4-en-3-one]
[3]; [6]
  AUC of serum concentration of dimethandrolone and immunoreactive metabolites: 2848
[3]; [7]
  AUC of serum concentration of dimethandrolone and immunoreactive metabolites: 3336
[1]; [8]
  Androgenic activity Potency Ratio: about two and one-half times
[1]; oral, daily for 7 days in 10% ethanol/sesame oil, CDB 110 (methyltestosterone) = 1.000 assigned, FIG. 5, ranges did not pass all significance tests, listed as 4718
  Androgenic activity Potency Ratio: 2.609^1
[1]; [9]
  Androgenic activity Potency Ratio: 10.4-47.5
[1]; subcutaneous injection, daily for 7 days, CBD-111 (testosterone) = 1.000 assigned, FIG. 6, footnote 2 values did not pass all significance tests, listed as 4718
  Androgenic activity Potency Ratio: 10.4-47.5^1,2
[2]
  Duration of androgenic activity (in words): short duration of action
[2]; [6]
  AUC of ventral prostate weight (duration of androgenic activity): 581 mg·week
[2]; [7]
  AUC of ventral prostate weight (duration of androgenic activity): 789 mg·week

## CCCCCCCCCCCCOC(=O)O[C@H]1CC[C@H]2[C@H]3[C@H]([C@@H](C)C[C@]12C)[C@H]1CCC(=O)C=C1C[C@H]3C [CDB-4730, 17β-Dodecyloxycarbonyloxy-7α,11β-dimethylestr-4-en-3-one]
[3]; single subcutaneous dose of 0.6 or 1.2 mg per rat in aqueous suspending vehicle, FIG. 16
  Serum levels of dimethandrolone and immunoreactive metabolites over time: decreased with time as expected
[1]; [8]
  Androgenic activity Potency Ratio: 0.97-3.82
[1]; oral, daily for 7 days in 10% ethanol/sesame oil, CDB 110 (methyltestosterone) = 1.000 assigned, FIG. 5, ranges did not pass all significance tests, listed as 4730
  Androgenic activity Potency Ratio: 0.97-3.82^1,2
[1]; subcutaneous injection
  Potency as percent of the subcutaneous standard, testosterone: 5%
[1]; [9]
  Androgenic activity Potency Ratio: 0.05^1,2
[2]
  Duration of androgenic activity (in words): far more potent; also recorded: exhibited similar long-acting activity

## CCCCCCOC(=O)O[C@H]1CC[C@H]2[C@H]3[C@H]([C@@H](C)C[C@]12C)[C@H]1CCC(=O)C=C1C[C@H]3C [CDB-4731, 17β-Hexyloxycarbonyloxy-7α,11β-dimethylestr-4-en-3-one]
[1]; [8]
  Androgenic activity Potency Ratio: 1.18-3.27
[1]; oral, daily for 7 days in 10% ethanol/sesame oil, CDB 110 (methyltestosterone) = 1.000 assigned, FIG. 5, ranges did not pass all significance tests, listed as 4731
  Androgenic activity Potency Ratio: 1.18-3.27^1,2
[1]; [9]
  Androgenic activity Potency Ratio: 32
[1]; subcutaneous injection, daily for 7 days, CBD-111 (testosterone) = 1.000 assigned, FIG. 6, footnote 2 values did not pass all significance tests, listed as 4731
  Androgenic activity Potency Ratio: 32.0^1,2

## CC1C[C@@]2(C)C(=CC[C@@H]2OC(=O)OC23CC4CC(CC(C4)C2)C3)[C@H]2[C@H]1[C@H]1CCC(=O)C=C1C[C@H]2C (stereo partly drawn) [CDB-4750A, 17β-Adamantyloxycarbonyloxy-7α,11-dimethylestra-4,14-dien-3-one]
[2]; [6]
  AUC of ventral prostate weight (duration of androgenic activity): 326 mg·week
[2]; [7]
  AUC of ventral prostate weight (duration of androgenic activity): 759 mg·week

## CCCCCCCCCCCCOC(=O)OC1CC[C@H]2[C@@H]3CCC4=CC(=O)CC[C@@H]4[C@H]3[C@@H](C)C[C@]12C (stereo partly drawn) [CDB-4754, 11β-Methyl-17-dodecyloxycarbonyloxy estr-4-en-3-one]
[2]; [6]
  AUC of ventral prostate weight (duration of androgenic activity): 564 mg·week
[2]; [7]
  AUC of ventral prostate weight (duration of androgenic activity): 974 mg·week

## CCCCCCCCCC(=O)OC1CCC2C3C(C)CC4=CC(=O)CCC4C3C(C)CC12C (stereo not drawn) [CDB-4756, dimethandrolone decanoate, reference compound]
[1]
  Biological activity Potency Ratio: 2.13-7.56

## CCCCCCCCCCOC(=O)O[C@H]1CC[C@H]2[C@@H]3CCC4=CC(=O)CC[C@@H]4[C@H]3[C@@H](C)C[C@]12C [CDB-4757, 11β-Methyl-17β-decyloxycarbonyloxyestr-4-en-3-one]
[1]
  Biological activity Potency Ratio: 1.96
